Source: patent US8987474B2 (University of South Florida, priority 2006, dated 2015)

How the values were obtained:
PTP1B = PTP1B (Homo sapiens (Human), UniProt P18031); experiment: PTP activity assay (DiFMUP substrate) with GST-PTP1B; type: biochemical; details: in vitro
Excerpt: All constructs were verified by DNA sequencing.
Recombinant DEP1 was from Abcam.

DEP1 = DEP1 (Homo sapiens (Human), UniProt Q12913); experiment: PTP activity assay (DiFMUP substrate) with recombinant DEP1; type: biochemical; details: DEP1, in vitro
CD45 = CD45 (Homo sapiens (Human), UniProt P08575); experiment: PTP activity assay (DiFMUP substrate) with recombinant CD45; type: biochemical; details: CD45, in vitro
LAR = LAR (Homo sapiens (Human), UniProt P10586); experiment: PTP activity assay (DiFMUP substrate) with LAR D1 domain; type: biochemical; details: in vitro
[1] = tested on: Gab1 tyrosine phosphorylation and Gab1-Shp2 association; experiment: EGF-induced Gab1 tyrosine phosphorylation and Gab1-Shp2 association in HEK293 cells; type: cell-based; details: 20 μM, 3 h, EGF 5 ng/ml 5 min
Experimental: . Gab1 was immunoprecipitated from cell lysate supernatants. Immunoprecipitates were analyzed by immunoblotting with antibodies to phosphotyrosine (pY), Gab1, or Shp2. An aliquot of each cell lysate supernatant (30 μg) was also examined by immunoblotting with an antibody to Shp2 (bottom panel). pY-Gab1, tyrosine-phosphorylated Gab1.
Shp2 is activated in EGF-stimulated cells by binding to tyrosine-phosphorylated Gab1 (and Gab2 if it is also expressed) (Cunnick et al., 2001). […] . […] . […] .

Shp1 = Shp1 (Homo sapiens (Human), UniProt P29350); experiment: biochemical
Sequence of Shp1 (P29350 203-595): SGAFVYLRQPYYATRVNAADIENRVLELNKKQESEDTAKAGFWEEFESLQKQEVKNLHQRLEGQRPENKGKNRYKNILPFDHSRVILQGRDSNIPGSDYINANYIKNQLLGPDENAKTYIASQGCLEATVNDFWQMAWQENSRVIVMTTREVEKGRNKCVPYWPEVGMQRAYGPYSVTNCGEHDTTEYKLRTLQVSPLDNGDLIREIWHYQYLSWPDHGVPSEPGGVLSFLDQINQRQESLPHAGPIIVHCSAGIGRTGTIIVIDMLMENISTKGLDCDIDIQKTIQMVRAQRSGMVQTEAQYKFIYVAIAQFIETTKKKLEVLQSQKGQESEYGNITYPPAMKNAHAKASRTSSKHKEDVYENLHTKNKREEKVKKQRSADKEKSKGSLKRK

Sequence of LAR (P10586 1352-1607): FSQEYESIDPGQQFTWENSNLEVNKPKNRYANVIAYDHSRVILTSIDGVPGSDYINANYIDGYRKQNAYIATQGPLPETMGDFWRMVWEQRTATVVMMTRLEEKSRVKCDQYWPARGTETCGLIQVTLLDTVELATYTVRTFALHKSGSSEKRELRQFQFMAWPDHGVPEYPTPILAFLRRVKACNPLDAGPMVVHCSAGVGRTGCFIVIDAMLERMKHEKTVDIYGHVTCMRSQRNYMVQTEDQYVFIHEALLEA
Sequence of PTP1B (P18031 whole entry): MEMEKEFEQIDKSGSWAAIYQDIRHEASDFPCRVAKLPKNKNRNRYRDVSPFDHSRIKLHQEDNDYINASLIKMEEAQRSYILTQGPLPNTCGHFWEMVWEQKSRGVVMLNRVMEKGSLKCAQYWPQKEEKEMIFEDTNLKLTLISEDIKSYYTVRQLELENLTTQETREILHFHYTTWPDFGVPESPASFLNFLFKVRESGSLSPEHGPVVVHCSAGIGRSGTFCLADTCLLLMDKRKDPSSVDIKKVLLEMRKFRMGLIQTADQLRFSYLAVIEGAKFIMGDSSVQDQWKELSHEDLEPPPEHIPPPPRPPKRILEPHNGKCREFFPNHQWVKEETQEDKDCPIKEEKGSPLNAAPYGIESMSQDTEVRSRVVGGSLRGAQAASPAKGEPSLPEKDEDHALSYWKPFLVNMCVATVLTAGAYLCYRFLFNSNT
Sequence of DEP1 (Q12913 36-1337): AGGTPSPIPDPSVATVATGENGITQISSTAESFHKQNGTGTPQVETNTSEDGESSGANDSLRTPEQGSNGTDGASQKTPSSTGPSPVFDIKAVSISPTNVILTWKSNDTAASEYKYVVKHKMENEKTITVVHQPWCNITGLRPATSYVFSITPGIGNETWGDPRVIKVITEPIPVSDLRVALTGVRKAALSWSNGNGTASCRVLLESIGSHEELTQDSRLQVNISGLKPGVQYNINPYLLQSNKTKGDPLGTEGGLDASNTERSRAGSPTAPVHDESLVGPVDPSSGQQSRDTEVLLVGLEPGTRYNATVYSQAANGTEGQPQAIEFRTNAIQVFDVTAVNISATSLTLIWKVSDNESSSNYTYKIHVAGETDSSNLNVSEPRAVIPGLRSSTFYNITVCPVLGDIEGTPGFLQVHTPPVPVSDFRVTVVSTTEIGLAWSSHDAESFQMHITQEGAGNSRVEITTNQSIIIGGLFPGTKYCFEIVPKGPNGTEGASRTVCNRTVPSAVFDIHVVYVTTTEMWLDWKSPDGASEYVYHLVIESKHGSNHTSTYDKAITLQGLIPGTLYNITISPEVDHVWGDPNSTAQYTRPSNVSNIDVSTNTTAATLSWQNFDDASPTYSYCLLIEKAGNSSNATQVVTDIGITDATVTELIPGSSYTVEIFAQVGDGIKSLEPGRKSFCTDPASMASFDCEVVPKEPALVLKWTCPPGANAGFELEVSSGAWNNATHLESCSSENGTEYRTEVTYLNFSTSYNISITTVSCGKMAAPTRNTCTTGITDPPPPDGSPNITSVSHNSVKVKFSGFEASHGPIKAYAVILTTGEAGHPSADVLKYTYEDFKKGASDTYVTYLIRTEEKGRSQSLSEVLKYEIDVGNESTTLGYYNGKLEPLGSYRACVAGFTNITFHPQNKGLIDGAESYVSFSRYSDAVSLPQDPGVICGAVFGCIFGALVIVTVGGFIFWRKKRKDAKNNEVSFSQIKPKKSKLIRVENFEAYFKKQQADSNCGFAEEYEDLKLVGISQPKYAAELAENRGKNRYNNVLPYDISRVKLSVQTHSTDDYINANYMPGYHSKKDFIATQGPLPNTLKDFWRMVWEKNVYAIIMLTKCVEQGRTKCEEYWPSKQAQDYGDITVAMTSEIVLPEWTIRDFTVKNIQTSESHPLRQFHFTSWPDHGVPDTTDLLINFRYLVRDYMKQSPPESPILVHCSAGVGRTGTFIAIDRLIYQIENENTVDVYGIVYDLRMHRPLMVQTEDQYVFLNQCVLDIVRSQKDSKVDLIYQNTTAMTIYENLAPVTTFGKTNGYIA
Sequence of CD45 (P08575 609-1306): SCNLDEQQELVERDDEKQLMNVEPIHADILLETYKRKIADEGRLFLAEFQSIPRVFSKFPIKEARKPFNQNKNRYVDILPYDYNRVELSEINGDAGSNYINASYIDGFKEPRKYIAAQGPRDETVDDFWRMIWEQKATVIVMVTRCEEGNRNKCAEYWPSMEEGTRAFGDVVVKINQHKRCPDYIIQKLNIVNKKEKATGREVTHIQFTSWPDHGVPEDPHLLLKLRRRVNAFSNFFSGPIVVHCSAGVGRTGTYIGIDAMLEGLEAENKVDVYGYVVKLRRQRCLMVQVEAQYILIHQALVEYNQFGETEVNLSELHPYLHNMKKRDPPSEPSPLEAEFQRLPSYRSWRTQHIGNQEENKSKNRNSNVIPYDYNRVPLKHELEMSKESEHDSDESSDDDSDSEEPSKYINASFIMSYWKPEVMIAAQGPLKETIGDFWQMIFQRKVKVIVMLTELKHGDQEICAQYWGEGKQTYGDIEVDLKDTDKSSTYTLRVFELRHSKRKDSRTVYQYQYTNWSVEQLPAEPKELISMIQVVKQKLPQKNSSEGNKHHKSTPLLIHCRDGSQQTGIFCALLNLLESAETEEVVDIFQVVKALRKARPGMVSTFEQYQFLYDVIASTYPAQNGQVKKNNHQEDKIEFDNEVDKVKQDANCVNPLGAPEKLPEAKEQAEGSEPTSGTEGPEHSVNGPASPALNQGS

O=S(=O)(O)c1ccc2cc(/N=N\c3cc(S(=O)(=O)O)c4cccnc4c3O)ccc2c1 [NSC-87877, 8-hydroxy-7-(6-sulfonaphthalen-2-yl)diazenyl-quinoline-5-sulfonic acid]
IC50 (PTP1B): 1.69 ± 0.407 µM | IC50 (DEP1): 65.6 ± 4.12 µM | IC50 (CD45): 84.5 ± 16.2 µM | IC50 (LAR): 151 ± 9.08 µM | EGF-stimulated Gab1 tyrosine phosphorylation [1]: did not inhibit | binding of Shp2 to Gab1 [1]: did not inhibit | IC50 (Shp1): 0.355 µM
